Laboratory results as given in patent US9000031B2, “Thioxanthone-based autophagy inhibitor therapies to treat cancer” (Spectrum Pharmaceuticals, Inc., priority 2010, dated 2015).

What was measured:
[1] = tested on: MDA-MB-231 breast cancer cell line; assay: Vacuolization by Giemsa staining and transmission electron microscopy; format: cell-based; settings: MDA-MB-231 cells, 48 hours; for accumulation of electron dense particles: 10 μM Lucanthone or 50 μM Chloroquine, transmission electron microscopy
Description: Increased vacuolization was visualized by Giemsa staining and transition electron microscopy. […] After drug treatment, cells were washed with PBS and fixed in methanol for 5 minutes. Cells were then incubated for 1 hour in Giemsa stain diluted 1:20 with deionized water. Cells were rinsed with water and imaged using an Olympus fluorescent microscope. Image-Pro Plus software Version 6.2.1 was used for image acquisition. Transmission electron microscopy of cells was performed using routine procedures. Sections were cut in an LKB Ultracut microtome (Leica, Deerfield, Ill.), stained with uranyl acetate and lead citrate, and examined in a JEM 1230 transmission electron microscope (JEOL, USA, Inc., Peabody, Mass.). Images were captured using the AMT Imaging System (Advanced Microscopy Techniques Corp, Danvers, Mass.).

[2] = tested on: MDA-MB-231 breast cancer cell line; assay: Lysosomal membrane permeabilization by loss of acridine orange fluorescence; format: cell-based; settings: MDA-MB-231 cells, 10 μM Lucanthone or 50 μM Chloroquine, 48 hours
Description: The appearance of LMP was monitored by loss of acridine orange fluorescence. Acidic lysosomes were visualized by acridine orange staining. […] Cells were washed with PBS and images were captured using an Olympus fluorescent microscope. Based on the acidity, lysosomes appeared as orange fluorescent cytoplasmic vesicles. Quantification of 5 random fields of acridine orange intensity was measured by immunofluorescence and image acquisition were performed using Image-Pro Plus software Version 6.2.1.

breast cancer cell lines [3] = assay: Cell viability by MTT assay in breast cancer cell lines; format: cell-based; settings: for IC50: 72 h, read-out: mean IC50, breast cancer cell viability
Description: (§1) Data is representative of three independent experiments.
as §1, §1

LC3-II, SQSTM1/p62 = assay: LC3-II formation and SQSTM1/p62 accumulation with Bafilomycin A1 (FIG. 1F); format: cell-based
breast cancer cell lines [4] = assay: Apoptosis by PI staining and FACS analysis of sub-G0/G1 DNA content; format: cell-based
Description: (§2) Cells from the breast cancer cell lines MDA-MB-231, BT-474, SKBR-3, and BT-20 were seeded into 96-well microculture plates at 10,000 cells per well and allowed to attach for 24 hours. Cells were then treated with 10 μM Lucanthone for 72 hours (48 hours for apoptosis assay). For immunoblotting, cells were harvested after treatment and cathepsin D levels were determined as described above. Pro-apoptotic effects following in vitro drug exposure were quantified by propidium iodide (PI) staining and fluorescence-activated cell sorting (FACS) analysis of sub-G0/G1 DNA content. Data is representative of three independent experiments.
Cells from the breast cancer cell lines MDA-MB-231, BT-474, SKBR-3, and BT-20 were seeded into 96-well microculture plates at 10,000 cells per well and allowed to attach for 24 hours. For immunoblotting, cells were then treated with 10 μM Lucanthone, 2.5 μM Vorinostat, or the combination for 72 hours, harvested, and cathepsin D levels were determined as described above. For the MTT cell viability assay, the cells were then treated with 10 μM Lucanthone, 2.5 μM Vorinostat, or the combination for 72 hours. After treatment, 3-(4,5-dimethylthiazol-2-yl)-2,5, diphenyltetrazolium bromide (MTT) was added after treatment and cell viability was quantified using a BioTek (Winooski, Vt.) microplate reader. […] Pro-apoptotic effects following in vitro drug exposure were quantified by propidium iodide (PI) staining and fluorescence-activated cell sorting (FACS) analysis of sub-G0/G1 DNA content. […]
Cells from the breast cancer cell lines MDA-MB-231 and BT-20 were seeded into 96-well microculture plates at 10,000 cells per well and allowed to attach for 24 hours. […] After treatment, 3-(4,5-dimethylthiazol-2-yl)-2,5, diphenyltetrazolium bromide (MTT) was added after treatment and cell viability was quantified using a BioTek (Winooski, Vt.) microplate reader. […] Pro-apoptotic effects following in vitro drug exposure were quantified by propidium iodide (PI) staining and fluorescence-activated cell sorting (FACS) analysis of sub-G0/G1 DNA content. […]

cathepsin D [5] = assay: Cathepsin D expression by immunoblotting in breast cancer cell lines; format: cell-based; settings: MDA-MB-231, BT-474, SKBR-3, BT-20 cells, 10 μM Lucanthone, 72 hours
Description: (§3) Levels and aggregation of SQSTMI/p62 were determined by immunoblotting and immunocytochemistry, respectively. […] Cells were harvested and were then lysed using routine procedures. Approximately 50 μg of total cellular protein from each sample were subjected to SDS-PAGE, proteins were transferred to nitrocellulose membranes, and the membranes were blocked with 5% nonfat milk in a Tris-buffered saline solution containing 0.1% TWEEN-20 for 1 hour. The blots were then probed overnight at 4° C. with primary antibodies, washed, and probed with species-specific secondary antibodies coupled to horseradish peroxidase. Immunoreactive material was detected by enhanced chemiluminescence (West Pico, Pierce, Inc., Rockville, Ill.).
as §2, with “experiments. […]” for “experiments.”

cathepsin D [6] = assay: Cathepsin D protein levels and aggregation by immunocytochemistry; format: cell-based; settings: immunocytochemistry (FIG. 3C)
[7] = tested on: MDA-MB-231 breast cancer cell line; assay: Lucanthone-induced apoptosis after cathepsin D siRNA knockdown; format: cell-based; settings: MDA-MB-231 cells, 100 nM cathepsin D siRNA vs non-target siRNA, 10 μM Lucanthone, 48 hours
Description: To further establish the mechanistic role of cathepsin D in Lucanthone-induced apoptosis, siRNA was used to knockdown its expression (FIG. 4C). Preparation of siRNAs Cahepsin D and non-target SMARTpool siRNA were obtained from Dharmacon (Lafayette, Colo.). Cells from a MDA-MB-231 breast cancer cell line were transfected with 100 nM of either non-target or cathepsin D siRNA using Oligofectamine (Invitrogen, Carlsbad, Calif.) according to the manufacturers protocol. Transfected cells were incubated at 37° C. for 24 hours and then treated with 10 μM Lucanthone for 48 hours. Efficiency of RNAi was measured at 48 hours by immunoblotting using an α-cathepsin D antibody. Apoptosis was determined by PI staining and flow cytometry.

SQSTMI/p62 = SQSTMI/p62 levels and aggregation by immunoblotting and immunocytochemistry; format: cell-based; settings: MDA-MB-231 cells
Description: This protein is degraded by autophagy, localized to cellular inclusion bodies, and has been proposed to play a role in facilitating protein aggregate clearance by autophagy. As such, a disruption of this process would result in the accumulation of SQSTMI/p62.
as §3

[8] = tested on: HCT116 colorectal cancer cell lines; assay: Cell viability in isogenic HCT116 p53 cell lines; format: cell-based; settings: HCT116 p53+1^+ and p53−1^− cell lines
Description: (§4) Loss of function of p53 is a frequent event in human cancer that is associated with tumorigenesis and drug resistance. […] To investigated the role of p53 in Lucanthone-mediated cell death, […]

cathepsin D [9] = assay: Quantitative real-time PCR analysis of cathepsin D; format: cell-based; settings: MDA-MB-231 and BT-20 cells, 10 μM Lucanthone, 48 hours, standardized to GAPDH
Description: The lysosomal protease cathepsin D is a key mediator of apoptosis and its release into the cytosol has been reported to promote cell death. Considering this, we further evaluated the role of cathepsin D during Lucanthone-mediated cell death using quantitative real-time PCR (qRT-PCR). To perform qRT-PCR, cells from a MDA-MB-231 or a BT-20 cell lines were treated with 10 μM Lucanthone for 48 hours and then harvested for analysis. Total RNA was isolated using the RNeasy Plus Mini Kit (Qiagen, Germantown, Md.) and treated with TURBO DNAfree™ Kit (Applied Biosystems, Foster City, Calif.). First-strand cDNA synthesis was performed from 1 μg RNA in a 20 μL reaction mixture using the high-capacity cDNA Reverse Transcription Kit (Applied Biosystems, Foster City, Calif.). Cathepsin D and GAPDH transcripts were amplified using commercially available TaqMan@Gene expression assays (Applied Biosystems, Foster City, Calif.). Levels of mRNAs were standardized to the expression of GAPDH and relative gene expression was calculated with the 2^−ΔCt method.

[10] = tested on: MDA-MB-231 and BT-20 breast cancer cell lines; assay: Affymetrix expression arrays; format: cell-based, human; settings: MDA-MB-231 and BT-20 cells, 10 μM Lucanthone, 48 hours
Description: To further characterize the effects of Lucanthone on breast cancer cells, expression profiling was performed on breast cancer cell lines. Cells from a MDA-MB-231 and a BT-20 breast cancer cell line were treated with 10 μM Lucanthone for 48 hours. Total RNA was isolated using the RNeasy Plus Mini Kit (Qiagen, Germantown, Md.) and treated with TURBO DNA-Free™ Kit (Applied Biosystems, Foster City, Calif.). 300 ng of total RNA per sample was amplified and hybridized to […]® Human Gene 1.0 ST arrays (Affymetrix, Inc., Santa Clara, Calif.) according to the manufacturer's instructions. These arrays assay for the expression of about 28,869 well-annotated genes with 764,885 distinct probes. Affymetrix CEL files were imported into PARTEK® Genomics Suite™ 6.4 (Partek Inc., St. Louis, Mo.) using the default Partek normalization parameters and the robust multi-array average (RMA) analysis adjusted for probe sequence and GC content (GC-RMA). Data normalization was performed across all arrays using quantile normalization.

LC3-II = assay: Accumulation of LC3-II by immunocytochemistry; format: cell-based; settings: MDA-MB-231 cells, 10 μM Lucanthone, 48 hours
Description: Accumulation of LC3-II was visualized by immunocytochemistry. Cells from a MDA-MB-231 breast cancer cell line were plated on chamber slides and allowed to attach overnight. […] Following drug treatment, cells were fixed with 4% paraformaldehyde, permeabilized using 0.2% TRITON-X-100, and incubated overnight with indicated primary antibodies. Alexa Fluor 488 conjugated fluorescent secondary antibodies were used to visualize protein localization. Images were captured using an Olympus fluorescent microscope (Center Valley, P A) with a DP71 camera and a 60× objective. Image-Pro Plus software Version 6.2.1 (MediaCybernetics, Bethesda, Md.) was used for image acquisition.

cathepsin D [11] = assay: Cathepsin D accumulation in isogenic HCT116 p53 cell lines; format: cell-based; settings: HCT116 p53+1^+ and p53−1^− cell lines
Description: as §4

[12] = breast cancer cell lines, FIG. 1G

CCN(CC)CCCC(C)Nc1ccnc2cc(Cl)ccc12 (stereo not shown) [Chloroquine]
accumulation of electron dense particles [1]: induced an accumulation of electron dense particles
acridine orange staining intensity of lysosomes (lysosomal acidity) [2]: loss of lysosomal acidity
IC50 (breast cancer cell lines [3]): 66 µM

CO/C1=C\C(C)=C\[C@@H](C)[C@@H](O)[C@@H](C)C/C(C)=C/C=C/[C@H](OC)[C@@H]([C@@H](C)[C@@H](O)[C@H](C)[C@@]2(O)C[C@@H](O)[C@H](C)[C@@H](C(C)C)O2)OC1=O [Bafilomycin A1]
LC3-II formation (LC3-II, SQSTM1/p62): induce LC3-II formation
SQSTM1/p62 accumulation (LC3-II, SQSTM1/p62): SQSTM1/p62 accumulation
apoptosis (breast cancer cell lines [4]; [12]): induce apoptosis in breast cancer cell lines

CCN(CC)CCNc1ccc(C)c2sc3ccccc3c(=O)c12 [Lucanthone, 1-((2-(Diethylamino)ethyl)amino)-4-methylthioxanthen-9-one]
accumulation of electron dense particles [1]: induced an accumulation of electron dense particles
cytoplasmic vacuolization ([1]; 10 μM Lucanthone, Giemsa staining): induced cytoplasmic vacuolization
cathepsin D levels (cathepsin D [5]): strongly increased
cathepsin D protein levels and cytosolic aggregation (cathepsin D [6]): dramatically increased cathepsin D protein levels and promoted its cytosolic aggregation
acridine orange staining intensity of lysosomes (lysosomal acidity) [2]: decreased the red staining intensity of lysosomes
sensitivity to Lucanthone-mediated apoptosis of cells with reduced cathepsin D levels [7]: significantly less sensitive
SQSTMI/p62 levels (SQSTMI/p62; 10 μM Lucanthone, 48 hours, immunoblotting): strongly increased
SQSTMI/p62 aggregation (SQSTMI/p62; immunocytochemistry): aggregated in response to Lucanthone
cell viability [8]: reduced viability to a similar extent
cathepsin D mRNA levels (qRT-PCR) (cathepsin D [9]): induced a significant increase in cathepsin D levels in both cell lines
IC50 (breast cancer cell lines [3]): 7.2 µM
cell viability (breast cancer cell lines [3]; panel of seven breast cancer cell lines, varying concentrations, 72 hours, MTT): reduced cell viability to a similar extent in a panel of seven breast cancer cell lines
LC3-II formation (LC3-II, SQSTM1/p62): induce LC3-II formation
SQSTM1/p62 accumulation (LC3-II, SQSTM1/p62): SQSTM1/p62 accumulation
genes induced: cathepsin D (CTSD), MMPI, CYPIAI (upregulated by at least 4-fold) [10]: increased in both cell lines
apoptosis (breast cancer cell lines [4]; MDA-MB-231, BT-474, SKBR-3, BT-20 cells, 10 μM Lucanthone, 48 hours, PI-FACS): induces apoptosis in four different breast cancer cell lines
apoptosis (breast cancer cell lines [4]; [12]): induce apoptosis in breast cancer cell lines
lipid modification of LC3 into LC3-II (punctate localization to autophagosomes) (LC3-II): induced lipid modification of LC3-1 into LC3-II
cathepsin D accumulation (cathepsin D [11]): induced cathepsin D accumulation equally regardless of p53 status
